{"source": "patent US7585839B2", "about": "“Medical uses of intercellular communication facilitating compounds” (Zealand Pharma A/S, priority 2001, dated 2009)", "key": {"[1]": {"system": "phosphoinositol turnover in neonatal rat cardiomyocytes", "test": "Phosphoinositol turnover in primary cardiomyocyte cultures", "assay_type": "cell-based", "protocol": "Neonatal Wistar rats (1-2 days old) are used. Hank's calcium- and magnesium-free balanced salt solution, buffered with 10 mM HEPES is used for washing during cell separation procedures. The hearts are excised, the ventricles isolated and the tissue cut into small pieces. The myocardial cells are isolated by stepwise enzymatic degradation with collagenase 0.05%, as described by ^[35]. After repeated rounds of centrifugation and washing, the precipitated cells are resuspended in culture medium M199 with Earle's salt, 10% NCS, penicillin (75 U/mL), and streptomycin (75 U/mL) and pre-plated in a Petri dish for 90 minutes. The non-adherent cells are collected in the culture medium and plated in multidishes at 2.5*10^5 cells/well. The cultures are kept in a water-saturated CO2-incubator at 37° C. The cardiomyocyte cultures are used for analyses after 6-7 days.\nCardiomyocyte cultures are incubated for 48 hours in culture medium containing 4 μCi/mL myo-[2-^3H]inositol to label the inositol phospholipids. On the day of analysis the medium is replaced by a buffer solution containing lithium and incubated at 37° C., as described by Meier et al.^[36]. After at least five minutes this buffer is replaced by the same volume of buffer containing test compound and incubated for exactly 20 minutes. The reaction is stopped by rapid replacement of the buffer by ice cold 4% v/v perchloric acid (PCA) and incubation for at least 20 minutes at 0° C. The PCA-extract is neutralised and the [^3H]inositol phosphates are separated by anion-exchange chromatography using Amprep™ columns containing 100 mg SAX Quaternary amine. The [^3H]inositol mono-phosphates are eluted and radioactivity in the fraction measured by liquid scintillation counting.\nBefore adding test substances to the cultures, the cells are depleted of glucose and oxygen by incubating them in a N2-atmosphere in glucose-free lithium-buffer for 10 minutes at 37° C. Control cells are incubated likewise only at normal atmospheric conditions and in a buffer containing glucose."}, "[2]": {"system": "calcium-induced arrythmias", "test": "Calcium-induced arrhythmia model in mice (CaCl2-induced 2nd degree AV-block)", "assay_type": "in vivo", "conditions": "for CaCl2 mice In vivo, % / CaCl2 mice Score: calcium chloride induced arrythmia model; for In vivo activity: maximal effect, increase in time until 2nd degree AV-block relative to vehicle treated mice, i.v.", "protocol": "The antiarrhythmic effects of compounds of this invention were tested in an in vivo model of calcium-induced arrythmias according to the model of Lynch et al.^[37]. […]. Commercial solutions of hypnorm and midazolam were diluted 1:1 in distilled water and one part diluted Hypnorm® is mixed with one part diluted midazolam.\nThe anaesthesia was induced by s.c. administration in a dose of 0.05-0.075 μl/10 gram mouse. An i.v. cannula was inserted into the tail vein. The lead II ECG signal was recorded continuously by positioning of a stainless steel ECG electrodes on the right forelimb and on the left hind limb. The ground electrode was placed on the right hind limb. The signal was amplified (×5.000-10.000) and filtered (0.1-150 Hz) via a Hugo Sachs Electronic model 689 ECG module. The analogue signal was digitised via a 12 bit data acquisition board (Data Translation model DT321) and sampled at 1000 Hz using the Notocord HEM 3.1 software for Windows NT. After a 10-min equilibration period, the test sample of drug was injected into the tail vein. Mice pre-treated with vehicle were tested as a measure of the control level in untreated animals. The injection volume was 100 μl in all experiments. Infusion of CaCl2 (30 mg/ml, 0.1 ml/min≈100 mg/kg/min (calciumchlorid-2-hydrat, Riedel-de Haën, Germany)) was started 3 min after i.v. administration of drug or vehicle.\nThe time lag to onset of 2nd degree AV-block was determined as the time from the start of CaCl2 infusion until the first arrhythmic event occured. An event of 2nd degree AV-block was defined as intermittent failure of the AV conduction characterised by a P-wave without the concomitant QRS complex.\nResponses were expressed relative to the time until 2nd degree AV-block occurred in vehicle treated mice."}, "[3]": {"system": "membranes from rabbit heart", "conditions": "cited from earlier work"}, "[4]": {"system": "regional ischemia in the rabbit", "conditions": "cited from earlier work"}, "[5]": {"system": "WB-F344 rat liver epithelial cells", "conditions": "cited from earlier work"}, "[6]": {"system": "cerulein-induced acute pancreatitis", "conditions": "100 mg/kg orally; pancreatitis group 19%; cited from earlier work"}, "GJIC": {"system": "GJIC", "conditions": "10(−10) to 10(−6) M; cited from earlier work"}, "[7]": {"system": "connexin 43 in keratinocytes", "conditions": "keratinocytes of middel aged and elderly people; cited from earlier work"}, "[8]": {"test": "In vitro plasma and serum stability, human", "assay_type": "in vitro ADME", "conditions": "for T½, PLASMA, HEPARIN HUMAN: 37° C., 0.1 mg/ml", "protocol": "(§1) The stability of peptides is analysed in serum and plasma. The peptides are incubated at 37° C. in plasma or serum and samples taken at approx. 9 regular intervals between t=0 and t=156 min are analysed by HPLC.\n(§2) This is done by subsequent injections of the drug, plasma, and a co-injection with the drug and the plasma, followed by optimisation of the LC method parameters until a satisfactory separation is obtained. Three parallel experiments are performed for each plasma type. 100 ml of peptide is mixed with 900 ml plasma at t=0 and incubated at 37° C. (drug-plasma mixture conc. 0.1 mg/ml). Samples of 100 ml of the drug-plasma mixture are removed at appropriate intervals and the degradation stopped by precipitation of the sample with 10 ml MeCN:TFA 50:50 v/v. A control plasma sample without the drug treated in the same manner is also taken. The plasma samples are centrifuged for 15 min. at 12,000 rpm (Eppendorf centrifuge) at ambient temperature. The resulting supernatant solution is transferred to 300 ml HP autosamler vials and analyzed by HPLC. The samples are analyzed in the following order: blank, the peptide at 0.1 mg/mL, the plasma without the peptide, the three parallel samples for t=0, the three parallel samples for t=5 min. the three parallel samples for t=10 min. etc. And finally the three parallel samples for t=0 are repeated to make sure that there have been no degradation or other failure during the analyses. The sample concentrations (peak height in mAU) are plotted vs. time and fitted to a function describing a mono exponential decay (Excel)."}, "[9]": {"test": "In vitro plasma and serum stability, rabbit", "assay_type": "in vitro ADME", "conditions": "37° C., 0.1 mg/ml", "protocol": "as §1\nas §2, with “And finally the three parallel samples for t=0 are repeated to make sure that there have been no degradation or other failure during the analyses. The sample concentrations (peak height in mAU) are plotted vs. time and fitted to a function describing a mono exponential decay (Excel).” left out"}, "human osteoblastic cells": {"system": "human osteoblastic cells", "test": "DDT-induced uncoupling in human osteoblast cells, Lucifer Yellow microinjection", "assay_type": "cell-based", "conditions": "13 μM, 60 minutes; control 14.5 cells", "protocol": "Human osteoblast cells: Cells were isolated from human bone marrow obtained by puncture of the posterior iliac spine of healthy volunteers (aged 20-36): 10-15 ml marrow material was collected in 15 ml PBS+Ca, Mg (Life Technologies, Cat.No. 14040) with 100 U/ml Heparin (Sigma, Cat.No. H-3149). The mononuclear fraction of the marrow was isolated on a Lymphoprep gradient (Nycomed Pharma, Cat.No. 1001967), by centrifugation at 2200 rpm for 30 min. After harvesting, the mononuclear fraction was washed once with culture medium and centrifuged at 1800 rpm for 10 min. Subsequently cells were counted and plated in culture medium at 8×10^6 cells/100 mm dish. hOB medium (all reagents obtained from Life Technologies): MEM w/o Phenol Red w/Glutamax (Cat.No. 041-93013) supplemented with 10% heat inactivated fetal calf serum (Cat.No. 10106) and 0.1% Penicillin/Streptomycin (Cat.No. 15140). Medium was changed the following day and the cells were cultured at 37° C. in 5%CO2 with medium change every 7 days. After 3-4 weeks of culture the cells had reached 70% confluence. The medium was then supplemented with 100 nM Dexamethasone (Sigma, Cat.No. D-4902) for 7 days. Cells were then plated for video imaging experiments: a 25 mm #1 glass coverslip was placed in a 35 mm dish (or each well of a 6-well multidish), cells were plated at 2.5×10^5 cells/coverslip and cultured for 2-3 days before use. […]"}}, "note": "[ ]: non-standard residue; d: D form. Hyp = O=C(O)[C@@H]1C[C@@H](O)CN1", "data": [{"compound": "H-GAG[Hyp]PY-NH2 [AAP10]", "values": [{"measurement": "EC50 relative to the EC50 value for Compound 2", "setting": "[1]; metabolic stress induced by anoxia and glucose deprivation", "result": 10, "unit": "fold"}, {"measurement": "EC50 relative to the EC50 value for Compound 2", "setting": "[1]; normoxia", "result": 200, "unit": "fold"}, {"measurement": "CaCl2 mice In vivo, %", "setting": "[2]", "result": "76 +/− 21%"}, {"measurement": "CaCl2 mice Score", "setting": "[2]", "result": 3}, {"measurement": "In vivo activity", "setting": "[2]", "result": "+++ (+++ refers to >60% increase in time until arrhythmia)"}, {"measurement": "value given for AAP10 by Dhein et al.", "setting": "[3]", "result": 0.2, "unit": "nM"}, {"measurement": "concentration of maximal effect on dispersion of the epicardial activation-recovery interval", "setting": "[4]", "result": "10^−8 mol/l"}]}, {"compound": "Oc1ccc(C=Cc2cc(O)cc(O)c2)cc1", "note": "[Resveratrol, resveratrol]", "values": [{"measurement": "time until calcium-induced block relative to animals treated with vehicle", "setting": "[2]; iv, 0.1 umol/kg", "result": "136±9", "unit": "%"}, {"measurement": "prevention of down-regulation of GJIC by DDT, factor", "setting": "[5]; 17-50 microM", "result": 1.8}, {"measurement": "prevention of down-regulation of GJIC by TPA, factor", "setting": "[5]; 17-50 microM", "result": 2.7}, {"measurement": "increase of GJIC, factor compared with solvent vehicle controls", "setting": "[5]; 17 to 50 microM, 6 h", "result": 1.3}]}, {"compound": "Nc1nc(N)nc(-c2cc(Cl)ccc2Cl)n1", "note": "[irsogladine, 6-(2,5-dichlorophenyl)-2,4-diamino-1,3,5-triazine]", "values": [{"measurement": "number of Cx32 grains, % of the normal control value", "setting": "[6]", "result": 70, "unit": "%"}, {"measurement": "effect on GJIC, compound alone", "setting": "GJIC", "result": "did not affect GJIC"}]}, {"compound": "COc1cc2c(cc1O)C[C@H]1c3c(cc(O)c(OC)c3-2)CCN1C", "note": "[boldine]", "values": [{"measurement": "optimal concentration for increase of the content of connexin 43", "setting": "[7]", "result": 50, "unit": "nM"}]}, {"compound": "H-PYNGAG[Hyp]-NH2 [Compound 27]", "values": [{"measurement": "stability in plasma and serum compared with AAP10", "setting": "[8]", "result": "considerably more stable"}]}, {"compound": "cyclo(GAG[Hyp]PYN) [Compound 36]", "values": [{"measurement": "CaCl2 mice In vivo, %", "setting": "[2]", "result": "57 +/− 8%"}, {"measurement": "CaCl2 mice Score", "setting": "[2]", "result": 2}, {"measurement": "In vivo activity", "setting": "[2]", "result": "+++ (+++ refers to >60% increase in time until arrhythmia)"}, {"measurement": "T½, PLASMA, HEPARIN RABBIT", "setting": "[9]", "result": "30 hrs ± 8%"}, {"measurement": "Human plasma half life", "setting": "[8]", "result": 13, "unit": "h"}, {"measurement": "T½, PLASMA, HEPARIN HUMAN", "setting": "[8]", "result": "9 hrs ± 1%"}]}, {"compound": "NC[C@H](O)c1ccc(O)c(O)c1", "note": "[Noradrenaline]", "values": [{"measurement": "Emax of phosphoinositol turnover", "setting": "[1]; atmosphere of N2 and depleted of glucose", "result": "2248±702", "unit": "cpm"}, {"measurement": "Emax of phosphoinositol turnover", "setting": "[1]; normal atmospheric and nutritional conditions", "result": "3852±266", "unit": "cpm"}]}, {"compound": "Clc1ccc(C(c2ccc(Cl)cc2)C(Cl)(Cl)Cl)cc1", "note": "[DDT, 1,1-bis(p-chlorophenyl)-2,2,2-trichlorethane, reference compound]", "values": [{"measurement": "cellular coupling, median number of cells with dye", "setting": "human osteoblastic cells", "result": 7, "unit": "cells"}]}, {"compound": "cyclo(GAG[Hyp]PYQ) [Compound 35]", "values": [{"measurement": "CaCl2 mice In vivo, %", "setting": "[2]", "result": "48 +/− 14%"}, {"measurement": "CaCl2 mice Score", "setting": "[2]", "result": 2}, {"measurement": "In vivo activity", "setting": "[2]", "result": "++ (++ refers to 30-50% increase in time until arrhythmia)"}, {"measurement": "T½, PLASMA, HEPARIN RABBIT", "setting": "[9]", "result": "14 hrs ± 2%"}, {"measurement": "Human plasma half life", "setting": "[8]", "result": 15, "unit": "h"}, {"measurement": "T½, PLASMA, HEPARIN HUMAN", "setting": "[8]", "result": "15 hrs ± 1%"}]}]}
